Test results reported in patent publication US20050112573A1, “Method of detecting toxic substance” (priority 2001, published 2005).

Tested on: yeast genes (level of expressed mRNA)
Assay: DNA chip analysis of expressed mRNA of yeast genes after 2 h culture with a toxic chemical substance
Format: cell-based, Saccharomyces cerevisiae S288C
Summary of the method: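 S. cerevisiae S288C in YPD at 25 °C was exposed at log phase for 2 h to a growth-inhibiting, non-lethal concentration of the chemical. Poly(A) mRNA was reverse-transcribed with Cy3- or Cy5-dUTP and hybridized to a whole-genome yeast DNA chip (65 °C, >12 h). Values are fluorescence ratios versus untreated cells.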

For Na2As [(1)], the “The level of expressed mRNA in the presence of chemical substance/” value (yeast gene YKL086W, ratio to control without chemical) was 1.0, the “The level of expressed mRNA in the presence of chemical substance/The level of expressed mRNA in the absence of chemical substance” value (yeast gene YKL096W) was 1.4 and the “The level of expressed mRNA in the presence of chemical substance/The level of expressed mRNA in the absence of chemical substance” value (yeast gene YKL139W) was 0.9. The “The level of expressed mRNA in the presence of chemical substance/” value (yeast gene YKL151C, ratio to control without chemical substance, 2 h culture) was 1.2, the “The level of expressed mRNA in the presence of chemical substance/” value (yeast gene YKL153W, ratio to control without chemical substance, 2 h culture) was 1.1 and the “The level of expressed mRNA in the presence of chemical substance/The level of expressed mRNA in the absence of chemical substance” value (yeast gene YKL165C) was 0.5. For the same substance, the “The level of expressed mRNA in the presence of chemical substance/The level of expressed mRNA in the absence of chemical substance” value (yeast gene YKL193C) was 1.3, the “The level of expressed mRNA in the presence of chemical substance/” value (yeast gene YKL195W, ratio to control without chemical substance, 2 h culture) was 0.8 and the “The level of expressed mRNA in the presence of chemical substance/in the absence of chemical substance” value (yeast gene YKR009C) was 1.0. For the same substance, the “The level of expressed mRNA in the presence of chemical substance/The level of expressed mRNA in the absence of chemical substance” value (yeast gene YKR014C) was 1.1, the “The level of expressed mRNA in the presence of chemical substance/” value (yeast gene YKR091W, ratio to control without chemical) was 1.5 and the “The level of expressed mRNA in the presence of chemical substance/” value (yeast gene YLR054C, ratio to control without chemical substance, 2 h culture) was 2.0. The “The level of expressed mRNA in the presence of chemical substance/The level of expressed mRNA in the absence of chemical substance” value (yeast gene YLR120C) was 1.2, the “The level of expressed mRNA in the presence of chemical substance/The level of expressed mRNA in the absence of chemical substance” value (yeast gene YLR136C) was 1.3 and the “The level of expressed mRNA in the presence of chemical substance/” value (yeast gene YLR149C, ratio to control without chemical substance, 2 h culture) was 1.4. For the same substance, the “The level of expressed mRNA in the presence of chemical substance/” value (yeast gene YLR152C, ratio to control without chemical substance, 2 h culture) was 0.7, the “The level of expressed mRNA in the presence of chemical substance/The level of expressed mRNA in the absence of chemical substance” value (yeast gene YLR178C) was 1.7 and the “The level of expressed mRNA in the presence of chemical substance/” value (yeast gene YLR194C, ratio to control without chemical) was 2.1. For the same substance, the “The level of expressed mRNA in the presence of chemical substance/The level of expressed mRNA in the absence of chemical substance” value (yeast gene YLR250W) was 1.5, the “The level of expressed mRNA in the presence of chemical substance/” value (yeast gene YLR324W, ratio to control without chemical substance, 2 h culture) was 0.7 and the “The level of expressed mRNA in the presence of chemical substance/The level of expressed mRNA in the absence of chemical substance” value (yeast gene YLR327C) was 5.5. The “The level of expressed mRNA in the presence of chemical substance/” value (yeast gene YLR350W, ratio to control without chemical substance, 2 h culture) was 1.2, the “The level of expressed mRNA in the presence of chemical substance/in the absence of chemical substance” value (yeast gene YLR351C) was 1.0 and the “The level of expressed mRNA in the presence of chemical substance/The level of expressed mRNA in the absence of chemical substance” value (yeast gene YLR356W) was 1.0. The “The level of expressed mRNA in the presence of chemical substance/The level of expressed mRNA in the absence of chemical substance” value (yeast gene YLR362W) was 1.1, the “The level of expressed mRNA in the presence of chemical substance/in the absence of chemical substance” value (yeast gene YLR375W) was 0.9 and the “The level of expressed mRNA in the presence of chemical substance/” value (yeast gene YLR387C, ratio to control without chemical substance, 2 h culture) was 0.9. For the same substance, the “The level of expressed mRNA in the presence of chemical substance/The level of expressed mRNA in the absence of chemical substance” value (yeast gene YLR429W) was 0.7, the “The level of expressed mRNA in the presence of chemical substance/” value (yeast gene YLR460C, ratio to control without chemical substance, 2 h culture) was 2.1 and the “The level of expressed mRNA in the presence of chemical substance/” value (yeast gene YML117W, ratio to control without chemical substance, 2 h culture) was 0.9. The “The level of expressed mRNA in the presence of chemical substance/The level of expressed mRNA in the absence of chemical substance” value (yeast gene YMR004W) was 0.9, the “The level of expressed mRNA in the presence of chemical substance/” value (yeast gene YMR009W, ratio to control without chemical substance, 2 h culture) was 2.3 and the “The level of expressed mRNA in the presence of chemical substance/” value (yeast gene YMR067C, ratio to control without chemical substance, 2 h culture) was 0.9. The “The level of expressed mRNA in the presence of chemical substance/” value (yeast gene YMR090W, ratio to control without chemical substance, 2 h culture) was 6.9, the “The level of expressed mRNA in the presence of chemical substance/The level of expressed mRNA in the absence of chemical substance” value (yeast gene YMR094W) was 1.0 and the “The level of expressed mRNA in the presence of chemical substance/” value (yeast gene YMR095C, ratio to control without chemical) was 1.1. The “The level of expressed mRNA in the presence of chemical substance/” value (yeast gene YMR097C, ratio to control without chemical substance, 2 h culture) was 1.5, the “The level of expressed mRNA in the presence of chemical substance/” value (yeast gene YMR102C, ratio to control without chemical substance, 2 h culture) was 1.0 and the “The level of expressed mRNA in the presence of chemical substance/The level of expressed mRNA in the absence of chemical substance” value (yeast gene YMR104C) was 1.9. The “The level of expressed mRNA in the presence of chemical substance/” value (yeast gene YMR107W, ratio to control without chemical substance, 2 h culture) was 5.0, the “The level of expressed mRNA in the presence of chemical substance/” value (yeast gene YMR180C, ratio to control without chemical substance, 2 h culture) was 1.2 and the “The level of expressed mRNA in the presence of chemical substance/” value (yeast gene YMR184W, ratio to control without chemical substance, 2 h culture) was 1.3. For the same substance, the “The level of expressed mRNA in the presence of chemical substance/” value (yeast gene YMR191W, ratio to control without chemical substance, 2 h culture) was 1.3, the “The level of expressed mRNA in the presence of chemical substance/The level of expressed mRNA in the absence of chemical substance” value (yeast gene YMR219W) was 0.7 and the “The level of expressed mRNA in the presence of chemical substance/The level of expressed mRNA in the absence of chemical substance” value (yeast gene YMR226C) was 1.1. For the same substance, the “The level of expressed mRNA in the presence of chemical substance/in the absence of chemical substance” value (yeast gene YMR267W) was 0.8, the “The level of expressed mRNA in the presence of chemical substance/The level of expressed mRNA in the absence of chemical substance” value (yeast gene YMR275C) was 0.7 and the “The level of expressed mRNA in the presence of chemical substance/The level of expressed mRNA in the absence of chemical substance” value (yeast gene YMR276W) was 0.6. For the same substance, the “The level of expressed mRNA in the presence of chemical substance/in the absence of chemical substance” value (yeast gene YMR278W) was 0.7, the “The level of expressed mRNA in the presence of chemical substance/in the absence of chemical substance” value (yeast gene YMR293C) was 0.9 and the “The level of expressed mRNA in the presence of chemical substance/” value (yeast gene YMR295C, ratio to control without chemical substance, 2 h culture) was 1.7. For the same substance, the “The level of expressed mRNA in the presence of chemical substance/” value (yeast gene YMR316W, ratio to control without chemical substance, 2 h culture) was 3.2, the “The level of expressed mRNA in the presence of chemical substance/The level of expressed mRNA in the absence of chemical substance” value (yeast gene YNL006W) was 1.1 and the “The level of expressed mRNA in the presence of chemical substance/The level of expressed mRNA in the absence of chemical substance” value (yeast gene YNL007C) was 0.7. For the same substance, the “The level of expressed mRNA in the presence of chemical substance/” value (yeast gene YNL044W, ratio to control without chemical substance, 2 h culture) was 1.3.
